Assay results reported in patent EP4603105A1, “PHARMACEUTICAL COMPOSITION CONTAINING CYCLIC COMPOUND HAVING SELECTIVE KRAS INHIBITORY EFFECT AGAINST HRAS AND NRAS” (CHUGAI SEIYAKU KABUSHIKI KAISHA, priority 2022, dated 2024).
pIC50: −log10 of the molar value.

Assays:
[1] = test system: human lung cancer strain NCI-H441; type: cell-based
Procedure, shortened: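 Proliferation was scored by […] measured after the reagent was added to cultures kept at 37°C in 5% carbon dioxide.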

[2] = target: GDP-bound NRAS wild-type protein (Homo sapiens, UniProt P01111); assay: Binding to NRAS by surface plasmon resonance (SPR), KD and KD ratio to KRAS; details: ratio of KD for GDP-bound NRAS wild-type protein to KD for KRAS
GDP-bound NRAS wild-type protein, sequence (P01111 whole entry): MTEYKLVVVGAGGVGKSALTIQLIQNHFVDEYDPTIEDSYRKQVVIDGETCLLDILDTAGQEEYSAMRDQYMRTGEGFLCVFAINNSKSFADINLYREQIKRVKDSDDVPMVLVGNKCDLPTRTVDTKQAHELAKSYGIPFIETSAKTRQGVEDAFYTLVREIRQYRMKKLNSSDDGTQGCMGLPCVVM
Procedure, shortened: (§1)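 Compound binding is evaluated by SPR single-cycle kinetics, with concentrations added intermittently from low to high for 75 s each. Target surfaces carry GDP-loaded biotinylated Avi-RAS at about 100–300 RU, regenerated after each cycle; temperature 30°C. A 1:1 binding model gives KD.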

HRAS wild-type protein = HRAS wild-type protein (Homo sapiens, UniProt P01112); assay: Binding to HRAS by surface plasmon resonance (SPR), KD and KD ratio to KRAS; details: ratio of KD for HRAS wild-type protein to KD for KRAS
HRAS wild-type protein, sequence (P01112 whole entry): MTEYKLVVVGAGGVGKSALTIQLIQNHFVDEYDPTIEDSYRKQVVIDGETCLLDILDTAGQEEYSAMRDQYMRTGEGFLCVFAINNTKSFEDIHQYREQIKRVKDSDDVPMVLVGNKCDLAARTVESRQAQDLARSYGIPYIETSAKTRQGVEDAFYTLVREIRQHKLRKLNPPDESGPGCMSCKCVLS
Procedure, shortened: as §1

Structure (SMILES) | pIC50 [1] | NRAS /KRAS [2] | HRAS /KRAS (HRAS wild-type protein)
CCO[C@@H]1C[C@H]2C(=O)NC3(CC(C)(C)C3)C(=O)N(C)[C@@H](CC3CCC3)C(=O)N(C)[C@H](C(=O)N(C)C)CC(=O)N(C)[C@@H](COC)C(=O)N[C@@H]([C@@H](C)CC)C(=O)N(C3CC3)CC(=O)N(C)[C@H]3C/C=C\CCN(C3=O)[C@@H](Cc3ccc(C(F)(F)F)cc3)C(=O)N(C)CC(=O)N[C@@H](CCc3ccc(C(F)(F)F)c(OC)c3)C(=O)N2C1 [PP2771] | 6.83 | AA (a compound having 20 or more is denoted as AA) | A (a compound having 10 or more and less than 20 is denoted as A)
CCO[C@@H]1C[C@H]2C(=O)NC3(CCC3)C(=O)N(C)[C@@H](CC(C)(C)C)C(=O)N(C)[C@H](C(=O)N3CCCC3)CC(=O)N(C)[C@@H](CC)C(=O)N[C@@H]([C@@H](C)CC)C(=O)N(C)CC(=O)N(C)[C@H]3C/C=C\CCN(C3=O)[C@@H](CC3CCCCC3)C(=O)N(C)CC(=O)N[C@@H](CCc3cc(F)c(C(F)(F)F)c(F)c3)C(=O)N2C1 [PP2772] | 7.55 | B (a compound having 3 or more and less than 10 is denoted as B) | B (a compound having 3 or more and less than 10 is denoted as B)
CCO[C@@H]1C[C@H]2C(=O)NC3(CC(C)(C)C3)C(=O)N(C)[C@@H](CC(C)(C)C)C(=O)N(C)[C@H](C(=O)N(C)C)CC(=O)N(C)[C@@H](C(C)C)C(=O)N[C@@H]([C@@H](C)CC)C(=O)N(C)CC(=O)N(C)[C@H]3C/C=C\CCN(C3=O)[C@@H](Cc3ccc(C(F)(F)F)cc3)C(=O)N(C)CC(=O)N[C@@H](CCc3ccc(C(F)(F)F)c(OC)c3)C(=O)N2C1 [PP2773] | 8.07 | B (a compound having 3 or more and less than 10 is denoted as B) | B (a compound having 3 or more and less than 10 is denoted as B)
CCC[C@H]1C(=O)N[C@@H]([C@@H](C)CC)C(=O)N(C)CC(=O)N(C)[C@H]2C/C=C\CCN(C2=O)[C@@H](Cc2ccc(C(F)(F)F)cc2)C(=O)N(C)CC(=O)N[C@@H](CCc2ccc(CC)c(Cl)c2)C(=O)N2C[C@H](OCC)C[C@H]2C(=O)NC2(CC(C)(C)C2)C(=O)N(C)[C@@H](C(CC)CC)C(=O)N(C)[C@H](C(=O)N(C)C)CC(=O)N1C [PP2777] | 6.96 | AA (a compound having 20 or more is denoted as AA) | A (a compound having 10 or more and less than 20 is denoted as A)
CCC[C@H]1C(=O)N[C@@H]([C@@H](C)CC)C(=O)N(C)CC(=O)N(C)[C@H]2C/C=C\CCN(C2=O)[C@@H](Cc2ccc(C)cc2)C(=O)N(C)CC(=O)N[C@@H](CCc2ccc(CC)c(Cl)c2)C(=O)N2C[C@H](OCC)C[C@H]2C(=O)NC2(CC(C)(C)C2)C(=O)N(C)[C@@H](C2CCCC2)C(=O)N(C)[C@H](C(=O)N(C)C)CC(=O)N1C [PP2778] | 7.65 | A (a compound having 10 or more and less than 20 is denoted as A) | A (a compound having 10 or more and less than 20 is denoted as A)
CCC[C@H]1C(=O)N[C@@H]([C@@H](C)CC)C(=O)N(C)CC(=O)N(C)[C@H]2C/C=C\CCN(C2=O)[C@@H](Cc2ccc(C(F)(F)F)cc2)C(=O)N(C)CC(=O)N[C@@H](CCc2cc(F)c(C(F)F)c(F)c2)C(=O)N2C[C@H](OCC)C[C@H]2C(=O)NC2(CC(C)(C)C2)C(=O)N(C)[C@@H](C2CCCC2)C(=O)N(C)[C@H](C(=O)N(C)C)CC(=O)N1C [PP2780] | 7.75 | A (a compound having 10 or more and less than 20 is denoted as A) | A (a compound having 10 or more and less than 20 is denoted as A)
CCC[C@H]1C(=O)N[C@@H]([C@@H](C)CC)C(=O)N(C)CC(=O)N(C)[C@H]2C/C=C\CCN(C2=O)[C@@H](Cc2ccc(C(F)(F)F)cc2)C(=O)N(C)CC(=O)N[C@@H](CCc2cc(F)c(C(F)F)c(F)c2)C(=O)N2C[C@H](OCC)C[C@H]2C(=O)NC2(CC(C)(C)C2)C(=O)N(C)[C@@H](C(CC)CC)C(=O)N(C)[C@H](C(=O)N(C)C)CC(=O)N1C [PP2781] | 7.19 | AA (a compound having 20 or more is denoted as AA) | A (a compound having 10 or more and less than 20 is denoted as A)
CCC[C@H]1C(=O)N[C@@H]([C@@H](C)CC)C(=O)N(C)CC(=O)N(C)[C@H]2C/C=C\CCN(C2=O)[C@@H](Cc2ccc(C)cc2)C(=O)N(C)CC(=O)N[C@@H](CCc2cc(F)c(C(F)F)c(F)c2)C(=O)N2C[C@H](OCC)C[C@H]2C(=O)NC2(CC(C)(C)C2)C(=O)N(C)[C@@H](C2CCCC2)C(=O)N(C)[C@H](C(=O)N(C)C)CC(=O)N1C [PP2782] | 7.23 | A (a compound having 10 or more and less than 20 is denoted as A) | A (a compound having 10 or more and less than 20 is denoted as A)
CCC[C@H]1C(=O)N[C@@H]([C@@H](C)CC)C(=O)N(C)CC(=O)N(C)[C@H]2C/C=C\CCN(C2=O)[C@@H](Cc2ccc(C(F)(F)F)cc2)C(=O)N(C)CC(=O)N[C@@H](CCc2ccc(Cl)c(C(F)(F)F)c2)C(=O)N2C[C@H](OCC)C[C@H]2C(=O)NC2(CC(C)(C)C2)C(=O)N(C)[C@@H](C2CCCC2)C(=O)N(C)[C@H](C(=O)N(C)C)CC(=O)N1C [PP2784] | 8.14 | A (a compound having 10 or more and less than 20 is denoted as A) | A (a compound having 10 or more and less than 20 is denoted as A)
CCC[C@H]1C(=O)N[C@@H]([C@@H](C)CC)C(=O)N(C)CC(=O)N(C)[C@H]2C/C=C\CCN(C2=O)[C@@H](Cc2ccc(C(F)(F)F)cc2)C(=O)N(C)CC(=O)N[C@@H](CCc2ccc(Cl)c(C(F)(F)F)c2)C(=O)N2C[C@H](OCC)C[C@H]2C(=O)NC2(CC(C)(C)C2)C(=O)N(C)[C@@H](C(CC)CC)C(=O)N(C)[C@H](C(=O)N(C)C)CC(=O)N1C [PP2785] | 7.98 | AA (a compound having 20 or more is denoted as AA) | A (a compound having 10 or more and less than 20 is denoted as A)
CCC[C@H]1C(=O)N[C@@H]([C@@H](C)CC)C(=O)N(C)CC(=O)N(C)[C@H]2C/C=C\CCN(C2=O)[C@@H](Cc2ccc(C)cc2)C(=O)N(C)CC(=O)N[C@@H](CCc2ccc(Cl)c(C(F)(F)F)c2)C(=O)N2C[C@H](OCC)C[C@H]2C(=O)NC2(CC(C)(C)C2)C(=O)N(C)[C@@H](C2CCCC2)C(=O)N(C)[C@H](C(=O)N(C)C)CC(=O)N1C [PP2786] | 8.01 | A (a compound having 10 or more and less than 20 is denoted as A) | A (a compound having 10 or more and less than 20 is denoted as A)
CCC[C@H]1C(=O)N[C@@H]([C@@H](C)CC)C(=O)N(C)CC(=O)N(C)[C@H]2C/C=C\CCN(C2=O)[C@@H](Cc2ccc(C)cc2)C(=O)N(C)CC(=O)N[C@@H](CCc2ccc(Cl)c(C(F)(F)F)c2)C(=O)N2C[C@H](OCC)C[C@H]2C(=O)NC2(CC(C)(C)C2)C(=O)N(C)[C@@H](C(CC)CC)C(=O)N(C)[C@H](C(=O)N(C)C)CC(=O)N1C [PP2787] | 7.66 | AA (a compound having 20 or more is denoted as AA) | A (a compound having 10 or more and less than 20 is denoted as A)
